US11274332B2, “Methods of administering 3,4-diaminopyridine” (SERB SA, priority 2011, dated 2022)
Read-outs that look alike come from different tables or passages of the source.

Assay: Example 18 Part 2: multiple dose PK (20 mg QID) of 3,4-DAP and 3-N-acetyl metabolite in slow and fast acetylators
Type: in vivo, human
Settings: for AUC(0-t) / Cmax / Tmax / Vd/F / half-life: both sexes, human, plasma, oral, 20 mg; for Cmax: read-out: Cmax; for Tmax: read-out: Tmax; for Vd/F: read-out: Vz/F; for half-life: read-out: t1/2 (converted)
Description: The following method was used to analyze concentrations of 3,4-diaminopyridine and N-(4-aminopyridin-3-yl)acetamide in plasma and urine samples for the experiments in Example 18. In the LC/MS/MS method, the human plasma and urine samples were extracted using acetonitrile containing 0.1% formic acid. Samples were analyzed by using HPLC with positive ion electrospray MS/MS detection. The column was an Atlantis HILIC Silica column (3 μm, 3×50 mm) at a temperature of 40° C. Mobile phase A was water containing ammonium formate (20 mM) and 0.1% formic acid. Mobile phase B was acetonitrile/isopropanol (90/10; v/v) containing 0.1% formic acid. The flow rate was 0.90 mL/minute. The gradient conditions for human plasma and urine samples were as follows:
The LC/MS/MS method was validated to quantify 3,4-DAP in human plasma in the linear calibration range of 0.500 to 500 ng/mL and from 1.00 to 1000 ng/mL for the 3-N-acetyl metabolite.
The primary objective of the study was to assess the safety and tolerability of 3,4-DAP phosphate after single and multiple doses. The secondary objectives of the study were • Part 1 only: To determine the dose-related PK profile of amifampridine and of 3-N-acetyl amifampridine after single, escalating doses of 3,4-DAP phosphate • Part 2 only: To assess the steady-state plasma PK and accumulation of amifampridine and of 3-N-acetyl amifampridine over multiple days of dosing with 3,4-DAP phosphate An exploratory objective was to examine the overall activity of the N-acetyl transferase enzymes on the metabolism of amifampridine by assessing the PK of amifampridine and 3-N-acetyl amifampridine with phenotypic acetylation activity and genotyping determination of NAT2 gene polymorphisms. Study Design and Plan
This open-label study in healthy subjects (male and female) was conducted in 2 parts. A total of 26 healthy male and female subjects, 12 in Part 1 (at least 5 of each sex), 4 in Part 2 Group 1, and 10 in Part 2 Group 2 (at least 4 of each sex) were enrolled into the study. The same subjects were not enrolled to participate in both parts. Subjects in Part 2 were dosed only after all subjects of Part 1 completed dosing and at least 24-hours of follow-up safety evaluation after the last dose were completed.
All subjects were characterized for their metabolic acetylation phenotype and NAT2 genotype in order to divide subjects into two groups of acetylators. Volunteers were genetically typed for highly variant alleles of the N-acetyl transferase 2 enzyme (NAT2) domain on chromosome 8 (according to Example 16) and were phenotyped for acetylation rates with a caffeine challenge test (according to Example 15a). Approximately equal numbers of slow and fast acetylators (as defined by a caffeine challenge test in Example 15a) were enrolled in each group. In Part 2, very slow acetylators with NAT2 activity (ratio 1, Example 15a) below 0.06 were excluded from participation in the study. In each part of the study, subjects were assessed for PK, safety, and tolerability and all doses were administered within 30 min of ingestion of a meal or a snack.
Part 2, Group 1: Four sentinel subjects were selected after determining their acetylator status. Two were fast acetylators and two were slow acetylators. All four were dosed on Day 1 with 4 oral doses of 20 mg of 34-DAP phosphate (given at 4-hour dosing intervals). On Days […] and 2, safety and tolerability data was collected. Subjects left the clinic on Day 2. The safety and tolerability data collected for these 4 sentinel subjects were reviewed. The safety and tolerability results of Days 1 and 2 for these subjects were acceptable and thus Part 2 Group 2 was commenced. Minimally acceptable safety was defined as the absence of clinical seizure activity. Subjects in Group 1 returned to the clinic for their follow-up assessments 2-4 days following their last dose.
Each subject was given a final morning dose of 20 mg 3,4-DAP phosphate on Day 4. […]

[1] = Day 1, fast acetylators, Dose 1 interval, 20 mg QID, arith. mean
[2] = Day 1, fast acetylators, Dose 2 interval, 20 mg QID, arith. mean
[3] = Day 1, fast acetylators, Dose 3 interval, 20 mg QID, arith. mean
[4] = Day 1, fast acetylators, Dose 4 interval, 20 mg QID, arith. mean
[5] = Day 1, slow acetylators, Dose 1 interval, 20 mg QID, arith. mean
[6] = Day 1, slow acetylators, Dose 2 interval, 20 mg QID, arith. mean
[7] = Day 1, slow acetylators, Dose 3 interval, 20 mg QID, arith. mean
[8] = Day 1, slow acetylators, Dose 4 interval, 20 mg QID, arith. mean
[9] = Day 3, fast acetylators, Dose 1 interval, 20 mg QID, arith. mean
[10] = Day 3, fast acetylators, Dose 2 interval, 20 mg QID, arith. mean
[11] = Day 3, fast acetylators, Dose 3 interval, 20 mg QID, arith. mean
[12] = Day 3, fast acetylators, Dose 4 interval, 20 mg QID, arith. mean
[13] = Day 3, slow acetylators, Dose 1 interval, 20 mg QID, arith. mean
[14] = Day 3, slow acetylators, Dose 2 interval, 20 mg QID, arith. mean
[15] = Day 3, slow acetylators, Dose 3 interval, 20 mg QID, arith. mean
[16] = Day 3, slow acetylators, Dose 4 interval, 20 mg QID, arith. mean
[17] = metabolite, Day 4, 20 mg single dose, fast acetylators
[18] = metabolite, Day 4, 20 mg single dose, slow acetylators

CC(=O)Nc1cnccc1N [3-N-acetyl amifampridine, N-(4-aminopyridin-3-yl)acetamide]
CL/F [1]: 16.2 L/h
CL/F [2]: 7.78 L/h
CL/F [3]: 8.90 L/h
CL/F [4]: 7.62 L/h
CL/F [5]: 28.8 L/h
CL/F [6]: 20.2 L/h
CL/F [7]: 13.5 L/h
CL/F [8]: 10.4 L/h
CL/F [9]: 11.5 L/h
CL/F [10]: 7.56 L/h
CL/F [11]: 7.72 L/h
CL/F [12]: 7.03 L/h
CL/F [13]: 19.0 L/h
CL/F [14]: 14.5 L/h
CL/F [15]: 12.7 L/h
CL/F [16]: 9.65 L/h
AUC(0-t) (Day 1, fast acetylators, Dose 1-4, 20 mg QID, arith. mean, read-out: AUC0-24): 5740 ng·h/mL
AUC(0-t) (Day 1, fast acetylators, Dose 1 interval, 20 mg QID, arith. mean, read-out: AUC0-4): 773 ng·h/mL
Cmax [1]: 333 ng/mL
Tmax [1]: 1.43 h
Vd/F [1]: 55.2 L
half-life [1]: 2.35 h
AUC(0-t) (Day 1, fast acetylators, Dose 2 interval, 20 mg QID, arith. mean, read-out: AUC0-4): 1160 ng·h/mL
Cmax [2]: 396 ng/mL
Tmax [2]: 1.5 h
Vd/F [2]: 32.9 L
half-life [2]: 2.93 h
AUC(0-t) (Day 1, fast acetylators, Dose 3 interval, 20 mg QID, arith. mean, read-out: AUC0-4): 1280 ng·h/mL
Cmax [3]: 426 ng/mL
Tmax [3]: 0.964 h
Vd/F [3]: 40.3 L
half-life [3]: 3.28 h
AUC(0-t) (Day 1, fast acetylators, Dose 4 interval, 20 mg QID, arith. mean, read-out: AUC0-4): 1340 ng·h/mL
Cmax [4]: 433 ng/mL
Tmax [4]: 1.14 h
Vd/F [4]: 40 L
half-life [4]: 3.93 h
AUC(0-t) (Day 1, slow acetylators, Dose 1-4, 20 mg QID, arith. mean, read-out: AUC0-24): 3580 ng·h/mL
AUC(0-t) (Day 1, slow acetylators, Dose 1 interval, 20 mg QID, arith. mean, read-out: AUC0-4): 383 ng·h/mL
Cmax [5]: 150 ng/mL
Tmax [5]: 1.68 h
Vd/F [5]: 120 L
half-life [5]: 2.95 h
AUC(0-t) (Day 1, slow acetylators, Dose 2 interval, 20 mg QID, arith. mean, read-out: AUC0-4): 627 ng·h/mL
Cmax [6]: 204 ng/mL
Tmax [6]: 1.46 h
Vd/F [6]: 101 L
half-life [6]: 3.5 h
AUC(0-t) (Day 1, slow acetylators, Dose 3 interval, 20 mg QID, arith. mean, read-out: AUC0-4): 759 ng·h/mL
Cmax [7]: 240 ng/mL
Tmax [7]: 1.25 h
Vd/F [7]: 71.5 L
half-life [7]: 4 h
AUC(0-t) (Day 1, slow acetylators, Dose 4 interval, 20 mg QID, arith. mean, read-out: AUC0-4): 769 ng·h/mL
Cmax [8]: 235 ng/mL
Tmax [8]: 1.71 h
Vd/F [8]: 70.6 L
half-life [8]: 4.74 h
AUC(0-t) (Day 3, fast acetylators, Dose 1-4, 20 mg QID, arith. mean, read-out: AUC0-24): 6570 ng·h/mL
AUC(0-t) (Day 3, fast acetylators, Dose 1 interval, 20 mg QID, arith. mean, read-out: AUC0-4): 1020 ng·h/mL
Cmax [9]: 374 ng/mL
Tmax [9]: 1.35 h
Vd/F [9]: 44.5 L
half-life [9]: 2.77 h
AUC(0-t) (Day 3, fast acetylators, Dose 2 interval, 20 mg QID, arith. mean, read-out: AUC0-4): 1320 ng·h/mL
Cmax [10]: 448 ng/mL
Tmax [10]: 1.3 h
Vd/F [10]: 36.6 L
half-life [10]: 3.6 h
AUC(0-t) (Day 3, fast acetylators, Dose 3 interval, 20 mg QID, arith. mean, read-out: AUC0-4): 1410 ng·h/mL
Cmax [11]: 490 ng/mL
Tmax [11]: 0.9 h
Vd/F [11]: 39.2 L
half-life [11]: 3.74 h
AUC(0-t) (Day 3, fast acetylators, Dose 4 interval, 20 mg QID, arith. mean, read-out: AUC0-4): 1460 ng·h/mL
Cmax [12]: 509 ng/mL
Tmax [12]: 1.1 h
Vd/F [12]: 42 L
half-life [12]: 4.17 h
AUC(0-t) (Day 3, slow acetylators, Dose 1-4, 20 mg QID, arith. mean, read-out: AUC0-24): 3650 ng·h/mL
AUC(0-t) (Day 3, slow acetylators, Dose 1 interval, 20 mg QID, arith. mean, read-out: AUC0-4): 523 ng·h/mL
Cmax [13]: 206 ng/mL
Tmax [13]: 1.75 h
Vd/F [13]: 95 L
half-life [13]: 3.47 h
AUC(0-t) (Day 3, slow acetylators, Dose 2 interval, 20 mg QID, arith. mean, read-out: AUC0-4): 684 ng·h/mL
Cmax [14]: 222 ng/mL
Tmax [14]: 1.5 h
Vd/F [14]: 81.5 L
half-life [14]: 3.89 h
AUC(0-t) (Day 3, slow acetylators, Dose 3 interval, 20 mg QID, arith. mean, read-out: AUC0-4): 802 ng·h/mL
Cmax [15]: 249 ng/mL
Tmax [15]: 1.2 h
Vd/F [15]: 68.1 L
half-life [15]: 3.75 h
AUC(0-t) (Day 3, slow acetylators, Dose 4 interval, 20 mg QID, arith. mean, read-out: AUC0-4): 814 ng·h/mL
Cmax [16]: 258 ng/mL
Tmax [16]: 0.9 h
Vd/F [16]: 78.3 L
half-life [16]: 5.7 h
AUC(0-t) (metabolite, Day 4, 20 mg single dose, fast acetylators, read-out: Mean AUC0-4): 1030 ng·h/mL
AUC(0-t) (metabolite, Day 4, 20 mg single dose, fast acetylators, read-out: Mean AUC0-24): 2120 ng·h/mL
AUC(0-t) (metabolite, Day 4, 20 mg single dose, slow acetylators, read-out: Mean AUC0-4): 513 ng·h/mL
AUC(0-t) (metabolite, Day 4, 20 mg single dose, slow acetylators, read-out: Mean AUC0-24): 1230 ng·h/mL
Mean CL/F [17]: 69.4 L/h
Mean t1/2 [17]: 1.40 h
Mean CL/F [18]: 116 L/h
Mean t1/2 [18]: 1.55 h
